From ChEMBL document CHEMBL1909294, “Translating clinical findings into knowledge in drug safety evaluation--drug induced liver injury prediction system (DILIps)” (PLoS Comput Biol, 2011)

Columns and labels:
Hepatotoxicity [1] = test system: Hepatotoxicity;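 as to HepSE bilirubinemia: bilirubinemia hepatic side effect score drawn from the DILIps training data, a prediction system for drug-induced liver injury; call rule not given here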;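 as to HepSE cholecystitis: Cholecystitis-related hepatic side effect score drawn from the DILIps (drug-induced liver injury prediction) training data set; call rule not given here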;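 as to HepSE cholelithiasis: hepatic side effect score for cholelithiasis, drawn from the DILIps training data for predicting drug-induced liver injury; call rule not given here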;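 as to HepSE cirrhosis: cirrhosis hepatic side effect score taken from the DILIps (drug-induced liver injury prediction) training set; call rule not given here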;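 as to HepSE elevated liver function tests: hepatic side effect score for raised liver function tests, as recorded in the DILIps training set used for predicting drug-induced liver injury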; as to HepSE hepatic failure: call rule not given here;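 as to HepSE hepatomegaly: hepatic side effect score for hepatomegaly, taken from the training set of the DILIps drug-induced liver injury prediction system; call rule not given here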
Hepatotoxicity [2] = test system: Hepatotoxicity; remark: listed apart in the source;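 as to HepSE bilirubinemia: bilirubinemia hepatic side effect score drawn from the DILIps training data, a prediction system for drug-induced liver injury; call rule not given here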;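 as to HepSE cholecystitis: Cholecystitis-related hepatic side effect score drawn from the DILIps (drug-induced liver injury prediction) training data set; call rule not given here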;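 as to HepSE cholelithiasis: hepatic side effect score for cholelithiasis, drawn from the DILIps training data for predicting drug-induced liver injury; call rule not given here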;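 as to HepSE cirrhosis: cirrhosis hepatic side effect score taken from the DILIps (drug-induced liver injury prediction) training set; call rule not given here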;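 as to HepSE elevated liver function tests: hepatic side effect score for raised liver function tests, as recorded in the DILIps training set used for predicting drug-induced liver injury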; as to HepSE hepatic failure: call rule not given here
Hepatotoxicity [3] = test system: Hepatotoxicity; remark: listed apart in the source;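 as to HepSE bilirubinemia: bilirubinemia hepatic side effect score drawn from the DILIps training data, a prediction system for drug-induced liver injury; call rule not given here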;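 as to HepSE cholecystitis: Cholecystitis-related hepatic side effect score drawn from the DILIps (drug-induced liver injury prediction) training data set; call rule not given here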;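 as to HepSE cholelithiasis: hepatic side effect score for cholelithiasis, drawn from the DILIps training data for predicting drug-induced liver injury; call rule not given here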;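 as to HepSE cirrhosis: cirrhosis hepatic side effect score taken from the DILIps (drug-induced liver injury prediction) training set; call rule not given here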;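 as to HepSE elevated liver function tests: hepatic side effect score for raised liver function tests, as recorded in the DILIps training set used for predicting drug-induced liver injury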; as to HepSE hepatic failure: call rule not given here
Hepatotoxicity [4] = test system: Hepatotoxicity; remark: listed apart in the source;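 as to HepSE bilirubinemia: bilirubinemia hepatic side effect score drawn from the DILIps training data, a prediction system for drug-induced liver injury; call rule not given here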;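 as to HepSE cholecystitis: Cholecystitis-related hepatic side effect score drawn from the DILIps (drug-induced liver injury prediction) training data set; call rule not given here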;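 as to HepSE cholelithiasis: hepatic side effect score for cholelithiasis, drawn from the DILIps training data for predicting drug-induced liver injury; call rule not given here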;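 as to HepSE cirrhosis: cirrhosis hepatic side effect score taken from the DILIps (drug-induced liver injury prediction) training set; call rule not given here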;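 as to HepSE elevated liver function tests: hepatic side effect score for raised liver function tests, as recorded in the DILIps training set used for predicting drug-induced liver injury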; as to HepSE hepatic failure: call rule not given here
Hepatotoxicity [5] = test system: Hepatotoxicity; remark: listed apart in the source; as to HepSE hepatic failure: call rule not given here
Hepatotoxicity [6] = test system: Hepatotoxicity; remark: listed apart in the source; as to HepSE hepatic failure: call rule not given here
Hepatotoxicity [7] = test system: Hepatotoxicity; remark: listed apart in the source
Hepatotoxicity [8] = test system: Hepatotoxicity; remark: listed apart in the source
Hepatotoxicity [9] = test system: Hepatotoxicity; remark: listed apart in the source
Hepatotoxicity [10] = test system: Hepatotoxicity; remark: listed apart in the source
Hepatotoxicity [11] = test system: Hepatotoxicity; remark: listed apart in the source
Hepatotoxicity [12] = test system: Hepatotoxicity; remark: listed apart in the source
Hepatotoxicity [13] = test system: Hepatotoxicity; remark: listed apart in the source
Hepatotoxicity [14] = test system: Hepatotoxicity; remark: listed apart in the source

Row | Compound | HepSE_bilirubinemia (Hepatotoxicity [1]) | HepSE_cholecystitis (Hepatotoxicity [2]) | HepSE_cholelithiasis (Hepatotoxicity [3]) | HepSE_cirrhosis (Hepatotoxicity [4]) | HepSE_elevated liver function tests (Hepatotoxicity [5]) | HepSE_hepatic failure (Hepatotoxicity [6]) | HepSE_hepatic necrosis (Hepatotoxicity [7]) | HepSE_hepatitis (Hepatotoxicity [8]) | HepSE_hepatomegaly (Hepatotoxicity [9]) | HepSE_jaundice (Hepatotoxicity [10]) | HepSE_liver disease (Hepatotoxicity [11]) | HepSE_liver fatty (Hepatotoxicity [12]) | HepSE_liver function tests abnormal (Hepatotoxicity [13]) | HepSE_Combined Scores (Hepatotoxicity [14]) | also measured
1 | CN(C)CC/C=C1/c2ccccc2COc2ccc(CC(=O)O)cc21 [OLOPATADINE] | 0 | 0 | 0 | 0 | 0 | 0 | 0 | 0 | 0 | 0 | 0 | 0 | 0 | 0 | 
2 | CC(C)(O/N=C(\C(=O)N[C@@H]1C(=O)N2C(C(=O)[O-])=C(C[n+]3ccccc3)CS[C@H]12)c1csc(N)n1)C(=O)O [CEFTAZIDIME] | 1 | 0 | 0 | 0 | 0 | 0 | 0 | 0 | 0 | 1 | 0 | 0 | 0 | 2 | 
3 | IVERMECTIN | 0 | 0 | 0 | 0 | 0 | 0 | 0 | 0 | 0 | 0 | 0 | 0 | 0 | 0 | 
4 | CCC(=O)O[C@]1(C(=O)CCl)[C@@H](C)C[C@H]2[C@@H]3C[C@H](F)C4=CC(=O)C=C[C@]4(C)[C@@]3(F)[C@@H](O)C[C@@]21C [HALOBETASOL PROPIONATE] | 0 | 0 | 0 | 0 | 0 | 0 | 0 | 0 | 0 | 0 | 0 | 0 | 0 | 0 | 
5 | CC[C@H](C)[C@@H]1NC(=O)[C@H](Cc2ccc(O)cc2)NC(=O)[C@@H](N)CSSC[C@@H](C(=O)N2CCC[C@H]2C(=O)N[C@@H](CC(C)C)C(=O)NCC(N)=O)NC(=O)[C@H](CC(N)=O)NC(=O)[C@H](CCC(N)=O)NC1=O [OXYTOCIN] | 0 | 0 | 0 | 0 | 0 | 0 | 0 | 0 | 0 | 0 | 0 | 0 | 0 | 0 | 
6 | O=C(O)c1cc(=O)c2c(OCC(O)COc3cccc4oc(C(=O)O)cc(=O)c34)cccc2o1 [CROMOLYN] | 0 | 0 | 0 | 0 | 0 | 0 | 0 | 0 | 0 | 0 | 1 | 0 | 0 | 1 | 
7 | Nc1ncnc2c1ncn2[C@@H]1O[C@H](COP(=O)(S)S)[C@@H](O)[C@H]1O | 0 | 0 | 0 | 1 | 1 | 1 | 1 | 1 | 0 | 1 | 0 | 0 | 0 | 6 | 
8 | COc1cc2nc(N3CCN(C(=O)c4ccco4)CC3)nc(N)c2cc1OC [PRAZOSIN] | 0 | 0 | 0 | 0 | 0 | 0 | 0 | 0 | 0 | 0 | 0 | 0 | 0 | 0 | 
9 | CCC1=C[C@@H]2CN(C1)Cc1c([nH]c3ccccc13)[C@@](C(=O)OC)(c1cc3c(cc1OC)N(C)[C@H]1[C@@](O)(C(=O)OC)[C@H](OC(C)=O)[C@]4(CC)C=CCN5CC[C@]31[C@@H]54)C2 [VINORELBINE] | 0 | 0 | 0 | 0 | 0 | 0 | 0 | 0 | 0 | 0 | 0 | 0 | 0 | 0 | 
10 | CC1(C)C(C=C(Cl)Cl)C1C(=O)OCc1cccc(Oc2ccccc2)c1 (stereo not drawn) [PERMETHRIN] | 0 | 0 | 0 | 0 | 0 | 0 | 0 | 0 | 0 | 0 | 0 | 0 | 0 | 0 | 
11 | Nc1cccc2c1CN(C1CCC(=O)NC1=O)C2=O (stereo not drawn) [LENALIDOMIDE] | 1 | 1 | 0 | 0 | 0 | 1 | 0 | 0 | 0 | 0 | 0 | 0 | 1 | 4 | 
12 | O=c1[nH]cc(F)c(=O)[nH]1 [FLUOROURACIL] | 0 | 0 | 0 | 0 | 0 | 0 | 0 | 0 | 0 | 0 | 0 | 0 | 0 | 0 | 
13 | Cc1cn[nH]c1 [FOMEPIZOLE] | 0 | 0 | 0 | 0 | 0 | 0 | 0 | 0 | 0 | 0 | 0 | 0 | 0 | 0 | 
14 | CC(C)[C@@H]1NC(=O)[C@H](CCCCN)NC(=O)[C@@H](Cc2c[nH]c3ccccc23)NC(=O)[C@H](Cc2ccc(O)cc2)NC(=O)[C@@H](NC(=O)[C@H](N)Cc2ccc3ccccc3c2)CSSC[C@@H](C(=O)N[C@H](C(N)=O)[C@@H](C)O)NC1=O [LANREOTIDE] | 1 | 1 | 1 | 0 | 0 | 0 | 0 | 0 | 1 | 0 | 0 | 0 | 0 | 4 | 
15 | CCS(=O)(=O)CCn1c([N+](=O)[O-])cnc1C [TINIDAZOLE] | 0 | 0 | 0 | 0 | 0 | 0 | 0 | 0 | 0 | 0 | 0 | 0 | 0 | 0 | 
16 | CN1[C@@H]2CC[C@H]1C[C@@H](OC(c1ccccc1)c1ccccc1)C2 [BENZTROPINE] | 0 | 0 | 0 | 0 | 0 | 0 | 0 | 0 | 0 | 0 | 0 | 0 | 0 | 0 | 
17 | CC(C)(C(=O)c1cccnc1)c1cccnc1 [METYRAPONE] |  |  |  |  |  |  |  |  |  |  |  |  |  |  | HepSE_bilirubinemia (Hepatotoxicity [1]; Liver): 0; HepSE_cholecystitis (Hepatotoxicity [2]; Liver): 0; HepSE_cholelithiasis (Hepatotoxicity [3]; Liver): 0; HepSE_cirrhosis (Hepatotoxicity [4]; Liver): 0; HepSE_elevated liver function tests (Hepatotoxicity [5]; Liver): 0; HepSE_hepatic failure (Hepatotoxicity [6]; Liver): 0; HepSE_hepatic necrosis (Hepatotoxicity [7]; Liver): 0; HepSE_hepatitis (Hepatotoxicity [8]; Liver): 0; HepSE_hepatomegaly (Hepatotoxicity [9]; Liver): 0; HepSE_jaundice (Hepatotoxicity [10]; Liver): 0; HepSE_liver disease (Hepatotoxicity [11]; Liver): 0; HepSE_liver fatty (Hepatotoxicity [12]; Liver): 0; HepSE_liver function tests abnormal (Hepatotoxicity [13]; Liver): 0; HepSE_Combined Scores (Hepatotoxicity [14]; Liver): 0
